# Assay results from patent US12011427B2, “Methods of treating cancer” (Inspirna, Inc., priority 2019, dated 2024).
# Read-outs that look alike come from different tables or passages of the source.
# Assays:
# [1] = system: advanced gastrointestinal tumors; assay: RGX-202 monotherapy or combination with FOLFIRI in subjects with advanced gastrointestinal tumors; assay type: in vivo, human
# Experimental: Method: Subjects with advanced gastrointestinal tumors (e.g., locally advanced and unresectable, or metastatic) were administered multiple doses of orally administered RGX-202 as a monotherapy or in combination with irinotecan, folinic acid, and fluorouracil. In the monotherapy arm of the study, RGX-202 was administered orally twice or three times daily on days 1-28 of each 28-day cycle. The dose regimen was dependent on the cohort in which the patient was enrolled. In the combination arm of the study, RGX-202 was administered in the same way as described for the monotherapy arm in combination with FOLFIRI. FOLFIRI was administered by intravenous administration of irinotecan (180 mg/m^2) over 90 minutes concurrently with intravenous administration of folinic acid (400 mg/m^2) over 2 hours, followed by fluorouracil (5-FU) (400 mg/m^2) intravenous bolus and then 5-FU (2400 mg/m^2) intravenous infusion over 46 hours, on days 1 and 15 of each 28-day cycle. During the dose escalation, subjects were evaluated for pharmacokinetics (using the method as described in Example 1), pharmacodynamics, safety, and efficacy of the drug.
# Solubility of β-GPA = assay type: physicochemical
# [2] = system: liver metastasis in gastrointestinal cancers; details: particularly liver metastasis in gastrointestinal cancers; WO2014/071067; cited from earlier work
# [3] = β-GPA plasma pharmacokinetics after RGX-202 BID dosing; assay type: in vivo, human; details: for AUC(0-t): read-out: Average AUC0-24
# Experimental: Method: Subjects were administered RGX-202 (a highly compressible salt form of β-GPA) in a regimen of 600 mg BID, 1,200 mg BID, 2,400 mg BID, or 3,600 mg BID, and plasma samples were taken from the subjects and tested using the protocol described below for levels of β-GPA over the course of 24 hours after administration.
# The analyte, β-GPA, and internal standard (IS), [13C415N3]-β-GPA, are extracted from 50.0 μL of human plasma by a protein precipitation extraction procedure. The extraction procedure begins with the addition of 50.0 μL of internal standard working solution to all wells except double blanks, which receive 50.0 μL of water. Next the plate is covered and vortexed. Then 500 μL of acetonitrile/methanol (50/50, v/v) is added to all wells. Next the plate is covered, vortexed and centrifuged. Using a Tomtec Quadra 4, 200 μL of the supernatant is transferred into a new plate. Then 300 μL acetonitrile/methanol (50/50, v/v) is added to all wells. The plate is then sealed and vortexed. The extracts are chromatographed under reverse phase conditions on a Luna HPLC column 50×2.0 mm, 3 μm column using a gradient system with 10 mM ammonium acetate in water and acetonitrile. The compounds are detected and quantified by tandem mass spectrometry in positive ion mode on a MDS Sciex API 4000 equipped with a Turbo Ionspray® interface.
# [4] = system: animal models of noninsulin-dependent diabetes; details: animal models of noninsulin-dependent diabetes (rats, monkeys, hamsters); cited from earlier work
# [5] = 1200 mg BID, human plasma, 1,200 mg BID
# [6] = 2400 mg BID, human plasma, 2,400 mg BID
# [7] = 3600 mg BID, human plasma, 3,600 mg BID
structure (smiles),measurement,setting,value
[H]/N=C(\N)NCCC(=O)O [RGX-202],subjects exhibiting a partial response,"[1]; of the 10 subjects who received the monotherapy, at 3,600 mg BID after 40 weeks",one
same,subjects exhibiting stable disease,"[1]; of the 10 subjects who received the monotherapy, at doses of 1,200 mg BID, 2,400 mg BID and 3,600 mg BID",three
same,objective activity,[1]; subjects with advanced gastrointestinal tumors,activities were observed
same,dose limiting toxicity,"[1]; subjects with advanced gastrointestinal tumors, oral dose escalation, monotherapy or combination",did not exhibit dose limiting toxicity
"N=C(N)NCCC(=O)O [β-GPA, β-Guanidinopropionic acid]",solubility in organic solvents,Solubility of β-GPA; organic solvents,low solubility
same,solubility,Solubility of β-GPA; water,> 50 mg/mL
same,suppression of metastasis,[2],effective
same,Cmax,[3]; [5],4790 ng/mL
same,AUC(0-t),[3]; [5],45.2 µg·h/mL
same,Cmax,[3]; [6],26800 ng/mL
same,AUC(0-t),[3]; [6],165 µg·h/mL
same,Cmax,[3]; [7],47700 ng/mL
same,AUC(0-t),[3]; [7],241 µg·h/mL
same,AUC Dose Acc. Ratio,"[3]; human plasma, 600 mg BID",1.0
same,Cmax,"[3]; human plasma, 600 mg BID",1400 ng/mL
same,Cmax Dose Acc. Ratio,"[3]; human plasma, 600 mg BID",1.0
same,Dose Normalized Average Cmax,"[3]; human plasma, 600 mg BID",1.2 ng/mL
same,Dose-Normalized Average AUC0-24,"[3]; human plasma, 600 mg BID",13.1 ng·h/mL
same,AUC(0-t),"[3]; human plasma, 600 mg BID",15.7 µg·h/mL
same,AUC Dose Acc. Ratio,"[3]; human plasma, 1,200 mg BID",1.4
same,Cmax Dose Acc. Ratio,"[3]; human plasma, 1,200 mg BID",1.7
same,Dose Normalized Average Cmax,"[3]; human plasma, 1,200 mg BID",2.0 ng/mL
same,Dose-Normalized Average AUC0-24,"[3]; human plasma, 1,200 mg BID",18.8 ng·h/mL
same,AUC Dose Acc. Ratio,"[3]; human plasma, 2,400 mg BID",2.7
same,Cmax Dose Acc. Ratio,"[3]; human plasma, 2,400 mg BID",4.8
same,Dose Normalized Average Cmax,"[3]; human plasma, 2,400 mg BID",5.6 ng/mL
same,Dose-Normalized Average AUC0-24,"[3]; human plasma, 2,400 mg BID",34.3 ng·h/mL
same,AUC Dose Acc. Ratio,"[3]; human plasma, 3,600 mg BID",2.6
same,Cmax Dose Acc. Ratio,"[3]; human plasma, 3,600 mg BID",5.7
same,Dose Normalized Average Cmax,"[3]; human plasma, 3,600 mg BID",6.6 ng/mL
same,Dose-Normalized Average AUC0-24,"[3]; human plasma, 3,600 mg BID",33.5 ng·h/mL
same,effect on hyperglycemia,[4],ameliorate hyperglycemia
